In patent publication US10648917B2, “Luminescent compositions and applications thereof” (THE PENN STATE RESEARCH FOUNDATION, priority 2015, dated 2020):

Experiments:
[1] = Time-resolved fluorescence lifetime (TCSPC); format: physicochemical; conditions: one-exponential decay, pulsed excitation at 352 nm, maximum emission wavelength
Protocol: Fluorescence lifetimes were determined by using the Time-Correlation Single Photon Counting (TCSPC) accessory to the FluroMax-4 (Horiba, NJ). NanoLED pulse light sources at wavelengths of 352 nm and 390 nm were used for excitation. For each decay curve, 10,000 photons were collected. Fluorescence lifetime decays were fitted with an exponential series according to equation 1 below:
[formula] where F(t) is the lifetime decay function with respect to time t, Ti is the lifetime value of the emitting species, A is the background offset, and Bi is the pre-exponential function of the emitting species. The method of least squares was used to quantify χ^2 based on the decay data and the fitting function, where χ^2 values smaller than 1.2 indicates a good fit; and values above 1.2 indicate need for multiple exponential fitting in equation 1. If the lifetime decay is dominated by one emitting species, the equation can be simplified to include only the first two terms. One exponential fitting is good for TPA based fluorophores. However, for DPR based fluorophores, only three exponential fitting gives a χ^2 smaller than 1.2. E. Computational Modeling
(§1) Absorbance Spectra were recorded on Tecan Infinite M200 Pro UV-vis spectroscopy, and fluorescence spectra were recorded on Horiba FluoroMax-4 fluorospectroscopy at concentrations below 0.1 O.D. unless otherwise indicated. Quantum Yields were measured on the Quantum φ Integrating Sphere accessory to the FluoroMax-4, while lifetime measurements were determined through the Time-Correlation Single Photon Counting (TCSPC) accessory to the FluroMax-4. TCSPC was utilized in conjunction with NanoLED pulsed diode light source with peak excitation wavelength at 352 nm and at 10,000 counts peak preset. Emission was collected at the fluorescence λmax, unless otherwise indicated. For all pH-dependence experiments, sample pH was adjusted with sulfuric acid or sodium hydroxide. For all chloride-dependent quenching experiments, magnesium chloride hexahydrate (Sigma Aldrich) was used.
Fluorescence lifetime decays were fitted with an exponential series according to equation 5 below:
[formula] Where F(t) is the lifetime decay function with respect to time t, Ti is the lifetime value of the emitting species, A is the background offset, and Bi is the pre-exponential function of the emitting species. If the lifetime decay is dominated by one emitting species, the equation can be simplified to include only the first two terms. Bi measures the relative amplitude of the specified fluorophore, where the percent contribution of the fluorophore to the lifetime decay, f, is derived from equation 6:
[formula] The method of least squares was used to quantify χ^2 based on the decay data and the fitting function, where χ^2 values under 1.2 indicates a good fit, and values above 1.2 indicate need for additional terms in equation 5. Typically, an additional exponential term was necessary to improve the χ^2 value and account for the presence of a negligible 6 ns species, deemed to stem from by-products of CFD synthesis, impurities, or CFD dimers. Since the contribution from this species was minor, often less than 5%, it was not included in lifetime analysis.

[2] = Fluorescence spectra, absorbance and quantum yield (spectrofluorometer, integration sphere); format: physicochemical; conditions: for Shifting (emission shifting with excitation wavelength): CFD dyes; for Φ (quantum yield) / λem (maximum emission wavelength) / λex (maximum excitation wavelength) / ϵ (extinction coefficiency): Table III; for Max. Em. Wavelength / Max. Ex. Wavelength / Quantum Yield: representative CFDs, Table I
Protocol: Fluorescence spectra were recorded by a Horiba FluoroMax-4 spectrofluorometer. All polymer and small molecule samples were measured at a concentration of 2% w/w in 1,4-dioxane or DI water and a slit size of 1 nm by 1 nm unless otherwise specified. Quantum yields were also determined on the same spectrofluorometer by using a Quantum-φ integration sphere at the same concentration and slit size with the blank solvent as the reference. ^1H-NMR, ^13C-NMR were performed on a JNM ECS 300 spectrometer using DMSO-d6 or D2O as solvents. Attenuated total reflection Fourier transform infrared (ATR-FTIR) spectra were collected with a Bruker V70 spectrometer using BPLP films. A Shimadzu HPLC-MS system with a Phenomenex Kinetex 2.6u XB-C18 100 mm×2.9 mm column, a SPD M20A PDA detector and a RF-20AXS fluorescence detector (Ex. 360 nm and Em. 430 nm) was used to characterize the structures of fluorophores as well. The mobile phase was a gradient of DI water and acetonitrile with 0-6 min 2% acetonitrile, 6-12 min 2%-30% acetonitrile, and 12-15 min 2% acetonitrile. The flow rate was 0.15 ml/min. Electrospray ionization mass spectroscopy (ESI-MS) was performed with a positive voltage of 4.5 kV and negative mode voltage −4.0 kV and a CDL temperature of 200° C. The analysis of the degradation products of BPLPs were conducted by immersing BPLPs in 1M K2CO3 solution at 37° C. for 24 hours. After degradation, the solutions were neutralized by 1N HCl solution to pH 7 and characterized by HPLC-MS as described above.
(§2) Fluorescence spectra were recorded by a Horiba FluoroMax-4 spectrofluorometer. All samples were measured at a concentration corresponding to an optical density of 0.1 in water and a slit size of 1 nm by 1 nm unless specified. Quantum yields were also determined on same spectrofluorometer by using a Quantum-φ integration sphere at samples' maximum excitation wavelength and at an increment of 0.3 nm. Photostability studies were done by continuously exciting samples at their maximum excitation wavelength and monitoring at the maximum emission wavelength.
(§3) Fluorescence spectra were recorded on a Horiba FluoroMax-4 spectrofluorometer (Horiba Scientific, Edison N.J.). All polymer and samples were characterized at a concentration of 2 wt % in 1,4-dioxane and a slit size of 1 nm by 1 nm unless otherwise specified. The fluorescence properties of small molecule dyes were also measure in 2 wt % DI water solutions at same conditions as polymer solutions. BPLPs were also degraded in 1M K2CO3 solution at 37° C. for 24 hours and then neutralized with 1N HCl solution to pH7. The resulting degradation solutions were subject to further PL characterizations. Quantum yields were also determined on the same spectrofluorometer by using a Quantum-φ integration sphere (Horiba Scientific, Edison N.J.) at the same concentration and slit size with the blank solvent as the reference. Photostability of small molecules and polymers were determined by monitoring the emission intensity decay at their max. Excitation and emission wavelengths over 3 hours of continuous lumination in the spectrofluorometer.
as §1

[3] = Photostability under continuous excitation for 3 hours; format: physicochemical
Protocol: as §2, §3
Photostability of CFDs was characterized thereafter, since traditional organic dyes suffer from photobleaching. Various CFDs were tested under their maximum excitation and emission wavelengths for 3 hours, and the photoluminescence was normalized to the initial intensity.

[4] = pH dependence of fluorescence / pH sensing; format: physicochemical
Protocol: as §1
pH Dependence of CA-Cys Fluorescence. Of all solvent and environmental factors that affect fluorescence, CA-Cys appeared to display the greatest sensitivity to changes in pH. […] From a detailed analysis of FIG. 13, four correlations were observed. Fluorescence properties of CA-Cys were invariable from high basicity to a pH of 4.84, from which the excitation λmax began to red-shift from 350 nm, emission λmax began to red-shift from 418 nm, maximum fluorescence intensity began to decrease, and quantum yield began to decrease. As acidity was increased, all four trends continued until pH 2.44, from which the excitation λmax plateaued at 365 nm, emission plateaued at 445 nm, and fluorescence intensity and quantum yield both experienced a short local plateau. Similarly, Stokes shift increased from 67 nm to 80 nm in high acidity. Lastly, absorbance λmax shifted similarly to that of the maximum excitation, while absorbance intensities remained relatively constant. […] All of these patterns were reminiscent of a pH-dependent equilibrium, thus the predominant mechanism of intensity quenching and bathochromic shifts was hypothesized to be attributed to changes in protolytic equilibria. The noticeably linear quenching of intensities past pH 1.63 is discussed with respect to lifetime analysis herein below.
There is a predictable, linear increase in intensity from pH 3 to 4.5. Furthermore, emission collected at a fixed 445 nm is shown in FIG. 15 to be an isobestic point where intensities are independent of pH (up to pH 1), which should greatly improve the functionality of CA-Cys as a pH sensor. In other words, utilizing 445 nm as a dual-wavelength reference point allows for background subtraction and normalization with respect to absorbance or concentration. […] Furthermore, I418 nm/I445 nm increases linearly in the region of pH 3 to 4.5 for accurate determination of pH within this region, plotted and fitted with an R^2 value of 0.982. To sum up, I418 nm/I445 nm values near 1.6 indicate pH above 4.5, values below 0.7 indicate highly acidic environments below pH 3, while any intermediate I418 nm/I445 nm values can determine the exact pH with good accuracy. It is important to note that CA-Cys fluorescence is in accordance with Kasha's rule, i.e. fluorescence occurs from the lowest excited state, S1→S0, thus the emission λmax is independent of the excitation wavelength, and a fluorescence excitation scan at a fixed emission of 418 nm or 445 nm would provide the maximum fluorescence intensity for that emission wavelength. Also of importance is the reliable range of the isobestic point, which is broken at high acidities (noticeably below pH 1) due to dynamic quenching effects.

[5] = commercial halide sensors; cited from earlier work
[6] = Halide fluorescence quenching (Stern-Volmer); format: physicochemical; conditions: compared with CA-Cysteine
Protocol: as §1
When a fluorophore of [F] absorbs light energy, excitation raises a sub-population of [F] to the excited state, [F*], which then rapidly lose energy along radiative relaxation (kr) or non-radiative relaxation (knr) according to equation 7. If a quencher forms a complex with the excited fluorophore, an extra non-radiative component, kq, is added to equation 7 to account for the additional relaxation pathway that is a function of quencher concentration and its association constant.
[formula] Thus the quenching of fluorescence can be quantitatively analyzed by comparing the affected lifetimes. The Stern-Volmer (SV) relationship is used to determine kq, the bimolecular quenching rate constant for the diffusion coefficients of the fluorophore and quencher, by deriving a plot of τ0/τ versus [Q]:
[formula] Thus the linear slope of the SV plot, KSV, measures the efficiency of the quencher. Since sulfuric acid was used to study proton-induced quenching, the pH value was a better indicator of [H^+] due to incomplete dissociation of sulfuric acid at high concentrations. In the case of multiple quenchers, as will be discussed in this paper, equation 7 must include additional kq terms that result in modified form of equation 12 below:
[formula] If the two quenchers are act independently, the quencher of known quenching rate and concentration can be combined into the Y-intercept term in order to determine the quenching rate of the second, unknown quencher. […]
To translate halide quenching into quantitative sensing applications, a modified Stern-Volmer equation (Equation 14) was used to linearize the effects of two quenchers, protons and the halide being studied, on the fluorescence of CA-Cysteine. […]
Since the measured sample fluorescence is quenched by both protons and halides, the unquenched fluorescence, Io, was defined as the fluorescence of the neutral state CA-Cysteine in the absence of additional proton or halide quenchers. As mentioned above, the effects of protolytic equilibria stabilize around pH 2.2, where CA-Cysteine undergoes 99% conversion from the dianion state and is marked by constant fluorescence intensities (FIG. 13). […] Thus we chose the fluorescence intensity at pH 2.2 (in the absence of halides) as the unquenched reference signal, Io. IH,Cl in equation 23 is the sample fluorescence at the pH and halide concentration indicated. […]

| Structure (SMILES) | Shifting (emission shifting with excitation wavelength) [2] | Φ (quantum yield) [2] [%] | λem (maximum emission wavelength) [2] [nm] | λex (maximum excitation wavelength) [2] [nm] | ϵ (extinction coefficiency) [2] [M⁻¹ cm⁻¹] | Max. Em. Wavelength [2] [nm] | Max. Ex. Wavelength [2] [nm] | Quantum Yield [2] [%] | pH dependence of halide quenching [5] | further results |
| --- | --- | --- | --- | --- | --- | --- | --- | --- | --- | --- |
| CCN(CC)c1ccc2c(-c3ccccc3C(=O)O)c3ccc(=[N+](CC)CC)cc-3oc2c1.[Cl-] [Rhodamine B, reference compound] | – | – | – | – | – | – | – | – | – | fluorescence lifetime τ [1]: 1.75 ns |
| CCCN1C(=O)C=C(C(=O)O)CC1=O [CA-Propylamine] | Yes | 24.6 | 424 | 359 | 6.6 | 422 | 359 | 22.1 | – | photobleaching relative to Fluorescein and Rhodamine B ([3]; 3 hours continuous excitation): less stable; pH sensitivity [4]: PH insensitive |
| CCOC(=O)C[n+]1cccc2cc(OC)ccc21.[Br-] [MQAE] | – | – | – | – | – | – | – | – | quenched by halides independent of pH | – |
| COc1ccc2c(ccc[n+]2CCCS(=O)(=O)[O-])c1 [SPQ] | – | – | – | – | – | – | – | – | quenched by halides independent of pH | – |
| O=C(O)c1cc2n(c(=O)c1)CCS2 [CA-Cysteamine] | No | 79.3 | 445 | 365 | 3880 | 445 | 365 | 79.3 | – | photostability ([3]; FIG. 19): strong photostability; halide sensitivity [6]: increase sensitivity of all halides across all pH |
| CC[n+]1cccc2cc(OC)ccc21.[I-] [MEQ] | – | – | – | – | – | – | – | – | quenched by halides independent of pH | – |
